Data reported in patent US9333211B2, “Phosphaplatin mediated modulation of pigment epithelial derived factor and uses thereof” (UNIVERSITY OF HOUSTON SYSTEM, priority 2013, dated 2016).
“Also recorded” adds a separate entry of the source.

Experiments:
HUVEC tube formation = experiment: HUVEC tubulogenesis assay on Matrigel; assay type: cell-based, human; conditions: for neovascularization (tube formation) in HUVEC: after 30 min of treatment; for tube formation after treatment: HUVEC on Matrigel, 30 min treatment period
Protocol: Endothelial cell tubulogenesis assay was performed seeding 20,000 cells of HUVECs in 96-well plate that was pre-coated with 0.1% gelatin and 40 ul of Matrigel and treated with increasing concentration of phosphaplatin compounds, RRD2 and RRD4 in medium 199 (Lonza Walkersville, Frederick, Md.) supplemented with 20% heat-inactivated FBS (Hyclone, Logan, Utah), 100 μg/ml heparin (Sigma Aldrich, St. Louis, Mo.), 100 U/ml penicillin-streptomycin (Lonza Walkersville, Frederick, Md.) and endothelial mitogen (Biomedical Technologies, Stoughton, Mass.). In brief, Matrigel was defrosted overnight at 4° C. and the 0.1% gelatin coated 96 well plate was chilled and 40 μl of Matrigel was coated into each well. The plate was then incubated at 37° C. and 5% CO2 for 1 hour. The 96-well plate was seeded with 2×10^4 cells of HUVECs. After a 24 hour period of cell attachment each well was treated with the increasing concentration of Pt compounds overnight (8-10 hours) at 37° C. and 5% CO2. The capillary/tube formation structures formed were then recorded by an inverted microscope and quantified. Cells were counted in total visual area of 1.575 mm.
To further investigate the anti-angiogenetic behavior of RRD2 and RRD4 on endothelial cell tube formation, we treated HUVECs with different concentration of RRD2 and RRD4 (compounds A and D in FIG. 2) onto Matrigel. After 30 min of incubation with tube-like structures were monitored with an inverted microscope at 40× magnification.

PEDF gene [1] = experiment: Individual PEDF gene expression, two step qRT-PCR; assay type: cell-based, human; conditions: A2780 cells, Single gene expression, endogenous control GADPH
Protocol: Individual Gene expression for PEDF was assessed by two step qRT-PCR assay. First, RNA isolation and purification was done as described above. A total of 2 μg total RNA was used to reverse-transcribe the template into single-stranded cDNA using RT^2 first strand kit (SABiosciences, Qiagen Inc.). In the second step, the synthesized cDNA was subjected to qRT-PCR RT^2 Primer Set (PEDF) used with SYBR Green real-time PCR master mix detection and endogenous control β-actin and/or GADPH (Applied Biosystems, Foster City, Calif.). All PCR reactions involving cDNA samples from treated and untreated cells were run in triplicate. Quantitative real-time PCR reactions were carried out on the StepOne PCR machine, 48 well system (Applied Biosystems, Foster City, Calif.) according to manufactures protocol. Results were generated using the StepOne software v2.1. The 2^−ΔΔCt method was used to present the relative differences in the mRNA expression levels.

PEDF gene [2] = experiment: PEDF gene expression, Human angiogenesis PCR array (real-time PCR); assay type: cell-based; conditions: A2780 cells, 24 hr, ΔΔCT vs β-actin
Protocol: Human ovarian cancer cell lines, A2780 (Fox Chase) were cultured in 100 mm^3 plates in monolayer by using RPMI medium 1640 supplemented with 10% FBS, 2 mM glutamine, 0.25 units/mL insulin and penicillin/streptomycin (100 units/ml) in a 37° C. incubator continuously gassed with 5% CO2. The cells were treated with either RRD2 and RRD4, 5 μM and 13 μM, respectively, for 24 hrs in triplicate. The cells were collected by 0.025% trypsin-edta and were centrifuged. The pellet of cells was then resuspended in PBS and washed three times with PBS and pelleted. The total RNA isolated using the Qiagen RNeasy Mini kit (Qiagen Inc.) according to the handbook protocol. The quantity of RNA was measured spectrophotometrically at Absorbance 260 nm (1Abs260=40 ug/ml) and the quality of RNA A260:A280 ratio was measured between 1.8 to 2.0. For each experiment, 0.9 μg of total RNA was converted to cDNA using the RT^2 first strand kit (SABiosciences, Qiagen Inc.) and analyzed on the SABiosciences (Qiagen Inc.) PAHS-024C Human angiogenesis array with an Applied Biosciences 7900HT real-time PCR machine according to manufactures protocol. The threshold cycle (Ct) and baseline for each well was determined by instruments software and the resulting Ct values were analyzed using SABiosciences PCR Array Data Analysis Web-based Software (http://sabiosciences.com/pcrarraydataanalysis.php). β-Actin and/or GADPH were used as housekeeping gene for determining fold regulation.

ARPE19 cells = experiment: CellTiter-Glo Luminescent Cell Viability Assay; assay type: cell-based, human; conditions: 100 μM, 24 hours of treatment
Protocol: Promega's CellTiter-Glo® Luminescent Cell Viability Assay was used to determine the number of viable cells in a culture by quantification of ATP (Promega. Madison, Wis.). Briefly, ARPE19 cells, a normal human retinal pigment epithelial cell line, were seeded in a 96 well plate with 10,000-30,000 cells per well and were allowed to attach for 24 hours. Thereafter, the cells were treated with RRD2 or RRD4 at different concentrations ranging from 1 to 100 μM for 24 hours. The detection reagent was prepared per manufactures protocol and equal volume of CellTiter-Glo® reagent was added to each well of cell culture and luminescence read with integration time set for 0.25 to 1 second. The Glo titer Viability Assay has a linear range is from 0 to 50,000 cells per well. Each concentration was done in triplicate.

PEDF protein [3] = experiment: PEDF protein expression by Western blot in A2780 cells; assay type: cell-based, human; conditions: 3 hrs, 6 hrs and 12 hrs treatment
Protocol: Treated human ovarian cancer cells (approximately 1×10^6 cells in 60 mm^3 plates at 80-90% confluence) line with 20 μM RRD2 and 25 μM RRD4 for 3, 6 and 12 hrs was washed with PBS for three times. Total protein was extracted by treating the washed cells directly with 200 μl of RIPA (Sigma, St. Louis, Mo.) or MPER (Pierce, USA). Protein extract samples (50 μg) were separated by 12% SDS-PAGE and blotted onto polyvinylidene difluoride (PVDF) membranes. The blots were washed with TBST [10 mM Tris-HCl (pH 7.6), 150 mM NaCl, 0.1% Tween-20], blocked with 5% skim milk and 1% BSA overnight at 4 C, and incubated with the mouse anit-PEDF (Santa Cruz Biotechnology, USA) primary antibody at 1:500 dilutions in TBST with 5% skim milk and 1% BSA overnight at 4° C. The membrane was then washed TBST, and the primary antibodies were detected with secondary antibody goat anti-mouse IgG conjugated to horseradish peroxidase at 1:2500 dilution for 1.5 hours at room temperature. The blots were developed with enhanced chemiluminescence (ECL) (Pierce, USA) and exposed to X-ray film.

PEDF protein [4] = experiment: PEDF protein expression by immunofluorescence in A2780 cells; assay type: cell-based, human; conditions: for PEDF protein expression by immunofluorescence: 12 hour treatment; for PEDF overexpression, time dependence: 3 to 24 hr, 20 and 25 μM
Protocol: A 6-well plate containing pretreated cover slips was seeded with 500-1000 cells of A2780 human ovarian cancer cell lines in 2.5 ml of RPMI 1640 media (Lonza Walkersville, Frederick, Md.) containing 2.0 mM L-glutamine and supplemented with 10% heat inactivated fetal bovine serum, FBS (Hyclone, Logan, Utah), and 0.25 units/mL recombinant human insulin (Sigma Aldrich, St. Louis, Mo.), 100 U/ml penicillin-streptomycin (Lonza Walkersville, Frederick, Md.). Those cells reaching to 80% confluency were treated with phosphaplatin compounds, RRD2 and RRD4 at various time intervals (3, 6, 12, or 24 hours). Each of the cover slip was washed with PBS three times, and the cells were fixed with freshly prepared 4% paraformaldehyde at room temperature for 20 minutes. The fixed cells were then washed with PBS for three times. These cells were permeablized and blocked with 7.5% bovine serum albumin, BSA/PBS/0.01% triton-X100 at 37° C. for 60 minutes followed by washing the cells with PBS twice. The cover slips were treated with a 1:300 dilution of Pigment epithelium-derived factor (PEDF; also known as serpin F1, SERPINF1) mouse primary antibody (Cell Signalling Technology Inc., Danvers, Mass.) in 7.5% BSA/PBS/0.01% triton for 12-15 hours 37° C. and washed with PBS for three times. The coverslips were incubated with secondary Alexa Fluor 488-conjugated anti-mouse IgG (FITC-Green) (Invitrogen, Carlsbad, Calif.) at a 1:5000 dilution in 7.5% BSA/PBS/0.01% triton-X100 for 1 hour at 37° C. in the dark. The cover-slips were then washed with PBS for another three times. In addition, some treatments were stained for beta-Actin and was stained with Phalloidin (Rhodamine) (Red) (Invitrogen, Carlsbad, Calif.) (7 ul/ml) in 7.5% BSA/PBS/0.01% triton-X100 for 1 hour at 37° C. in the dark. The moist cover-slips were then mounted onto a microscope slide with Ultracruz mounting media containing DAPI (4′,6-diamidino-2-phenylindole) (Blue) (Santa Cruz Biotechnology, Santa Cruz, Calif.) (for identifying the nucleus) and images were then collected on an Olympus FV-1000 inverted stage confocal microscope using a Plan Apo N 60×1.42NA oil immersion objective and processed by FluoView software.

NC1CCCCC1N.O=P1(O)OP(=O)(O)[O][Pt]([OH])([OH])[O]1 [RRD4, R,R-trans-1,2-cyclohexane-diamine-trans-dihydroxo(dihydrogenpyrophospahto) platinum(IV)]
neovascularization (tube formation) in HUVEC (HUVEC tube formation; 10 μM): inhibition
tube formation after treatment (HUVEC tube formation): No tube formation was evident
Fold change expression of PEDF (PEDF gene [1]; 25 uM, 3 hr): 2.1 fold
Fold change expression of PEDF (PEDF gene [1]; 50 uM, 24 hr): 4.1 fold
Fold change expression of PEDF (PEDF gene [2]; 13 uM): 2.05 fold
effect on viability of ARPE19 retinal cells (ARPE19 cells): no effect
PEDF protein expression by Western Blotting (PEDF protein [3]; A2780, 25 μM): overexpression; also recorded: upregulated
PEDF protein expression by immunofluorescence (PEDF protein [4]; A2780, 25 μM): overexpression; also recorded: overexpressed or upregulated
PEDF overexpression, time dependence (PEDF protein [4]; human ovarian cells): time dependent overexpression

NC1CCCCC1N.O=P1(O)[O][Pt][O]P(=O)(O)O1 [RRD2, R,R-trans-1,2-cyclohexane-diamine (dihydrogen pyrophospahto)platinum(II)]
inhibition of HUVEC tube formation on Matrigel (HUVEC tube formation; 0.5 μM, 30 min incubation): more than 85%
neovascularization (tube formation) in HUVEC (HUVEC tube formation; 1 μM): inhibition
tube formation after treatment (HUVEC tube formation): No tube formation was evident
Fold change expression of PEDF (PEDF gene [2]; 5 uM): 2.64 fold
Fold change expression of PEDF (PEDF gene [2]; 20 uM): 5.79 fold
effect on viability of ARPE19 retinal cells (ARPE19 cells): no effect
PEDF protein expression by Western Blotting (PEDF protein [3]; A2780, 20 μM): overexpression; also recorded: upregulated
PEDF protein expression by immunofluorescence (PEDF protein [4]; A2780, 20 μM): overexpression; also recorded: overexpressed or upregulated
PEDF overexpression, time dependence (PEDF protein [4]; human ovarian cells): time dependent overexpression
treatment time of maximum PEDF protein expression (PEDF protein [4]; immune-fluorescence experiments, human ovarian cells): 12 h
